Active and inactive are the calls of the source. No cut-off for these calls is given here.
Columns and labels:
[1] = tested on: HCT-116; assay: Antiproliferative activity against human HCT-116 cells assessed as reduction in cell viability at 50 uM measured after 24 hrs; type: functional, cell-based
[2] = tested on: MGC-803; assay: Antiproliferative activity against human MGC-803 cells assessed as reduction in cell viability at 50 uM measured after 24 hrs; type: functional, cell-based
[3] = tested on: MCF7; assay: Antiproliferative activity against human MCF7 cells assessed as reduction in cell viability at 50 uM measured after 24 hrs; type: functional, cell-based
[4] = tested on: HeLa; assay: Antiproliferative activity against human HeLa cells assessed as reduction in cell viability measured after 48 hrs by 3-(4,5-dimethylthiazol-2-yl)-2,5-diphenyltetrazolium bromide assay; type: functional, cell-based
[5] = tested on: HepG2; assay: Antiproliferative activity against human HepG2 cells assessed as reduction in cell viability measured after 48 hrs by 3-(4,5-dimethylthiazol-2-yl)-2,5-diphenyltetrazolium bromide assay; type: functional, cell-based; details: HepG2, 48 h
[6] = tested on: NCI-H1299; assay: Antiproliferative activity against human NCI-H1299 cells assessed as reduction in cell viability measured after 48 hrs by MTT assay; type: functional, cell-based; details: NCI-H1299, 48 h
[7] = tested on: A549; assay: Antiproliferative activity against human A549 cells assessed as reduction in cell viability measured after 48 hrs by MTT assay; type: functional, cell-based; details: A549, 48 h
[8] = tested on: SGC-7901; assay: Antiproliferative activity against human SGC-7901 cells assessed as reduction in cell viability measured after 48 hrs by MTT assay; type: functional, cell-based; details: SGC-7901, 48 h
[9] = tested on: U-87 MG; assay: Antiproliferative activity against human U87 cells assessed as reduction in cell viability measured after 24 hrs; type: functional, cell-based, U-87MG ATCC
[10] = tested on: U-87 MG; assay: Antiproliferative activity against human U87 cells assessed as reduction in cell viability measured after 48 hrs; type: functional, cell-based, U-87MG ATCC
[11] = tested on: 4T1; assay: Antiproliferative activity against mouse 4T1 cells assessed as reduction in cell viability measured after 24 hrs by MTT assay; type: functional, cell-based; details: 4T1, 24 h
[12] = tested on: HCT-116; assay: Antiproliferative activity against human HCT-116 cells assessed as cell viability at 50 uM measured after 24 hrs relative to control; type: functional; details: read-out: Activity
[13] = tested on: MGC-803; assay: Antiproliferative activity against human MGC-803 cells assessed as cell viability at 50 uM measured after 24 hrs relative to control; type: functional; details: read-out: Activity
[14] = tested on: MCF7; assay: Antiproliferative activity against human MCF7 cells assessed as cell viability at 50 uM measured after 24 hrs relative to control; type: functional; details: read-out: Activity
[15] = tested on: HCT-116; assay: Antiproliferative activity against human HCT-116 cells assessed as reduction in cell viability measured after 24 hrs; type: functional, cell-based; details: HCT-116, 24 h
[16] = tested on: MGC-803; assay: Antiproliferative activity against human MGC-803 cells assessed as reduction in cell viability measured after 24 hrs; type: functional, cell-based; details: MGC-803, 24 h
[17] = tested on: MCF7; assay: Antiproliferative activity against human MCF7 cells assessed as reduction in cell viability measured after 24 hrs; type: functional, cell-based; details: MCF7, 24 h

## COc1ccc2c3c(n(Cc4ccc(F)cc4)c2c1)C(C)=NCC3
[1]
  Activity: Active
[2]
  Activity: Active
[3]
  Activity: Active

## COc1ccc2c3c(n(Cc4ccccc4F)c2c1)C(C)=NCC3
[1]
  Activity: Active
[2]
  Activity: Active
[3]
  Activity: Active

## COc1ccc2c3c(n(Cc4ccccc4C)c2c1)C(C)=NCC3
[1]
  Activity: Active
[2]
  Activity: Active
[3]
  Activity: Active

## COc1ccc2c3c(n(CCCCCCn4c5cc(OC)ccc5c5ccnc(C)c54)c2c1)C(C)=NCC3
[1]
  Activity: Active
[2]
  Activity: Active
[3]
  Activity: Active

## COC(=O)Cn1c2c(c3ccc(OC)cc31)CCN=C2C
[1]
  Activity: Active
[2]
  Activity: Active
[3]
  Activity: Active

## COc1ccc2c3c([nH]c2c1)C(C)=NCC3 [HARMALINE]
[4]
  IC50: 28 µM
[5]
  IC50: 11.2 µM
[6]
  IC50: 48.2 µM
[7]
  IC50: 67.9 µM
[8]
  IC50: 4.08 µM
[9]
  IC50: 208 µM
[10]
  IC50: 127 µM
[11]
  IC50: 30.9 µM
[12]
  viability at 50 µM: ~75%
[13]
  viability at 50 µM: ~120%
[14]
  viability at 50 µM: ~71%

## C#CCn1c2c(c3ccc(OC)cc31)CCN=C2C
[1]
  Activity: Active
[2]
  Activity: Active
[3]
  Activity: Active

## COc1ccc2c3c(n(Cc4ccc5ccccc5c4)c2c1)C(C)=NCC3
[12]
  viability at 50 µM: < 10%
[13]
  viability at 50 µM: < 10%
[14]
  viability at 50 µM: < 10%
[15]
  IC50: 6.32 µM
[16]
  IC50: 21.4 µM
[17]
  IC50: 11.9 µM

## COc1ccc2c3c(n(Cc4cccc(C)c4)c2c1)C(C)=NCC3
[1]
  Activity: Active
[2]
  Activity: Active
[3]
  Activity: Active

## COc1ccc2c3c(n(CCCCCCBr)c2c1)C(C)=NCC3
[12]
  viability at 50 µM: < 10%
[13]
  viability at 50 µM: < 10%
[14]
  viability at 50 µM: < 10%
[15]
  IC50: 8.95 µM
[16]
  IC50: 15.4 µM
[17]
  IC50: 18.5 µM

## COc1ccc2c3c(n(C/C=C/c4ccccc4)c2c1)C(C)=NCC3
[1]
  Activity: Active
[2]
  Activity: Active
[3]
  Activity: Active

## COc1ccc2c3c(n(CCCCn4c5cc(OC)ccc5c5ccnc(C)c54)c2c1)C(C)=NCC3
[12]
  viability at 50 µM: < 10%
[13]
  viability at 50 µM: < 10%
[14]
  viability at 50 µM: < 10%
[15]
  IC50: 4.5 µM
[16]
  IC50: 10.2 µM
[17]
  IC50: 18.7 µM
